Experimental data from patent publication US8193203B2, “Bicyclic compounds having activity at the CXCR4 receptor” (Allergan, Inc., priority 2008, dated 2012).

Molecular target: T1, human CXCR4 receptor (Homo sapiens, UniProt P61073)
T1 construct: expressed in transfected cells
Test: Measurement of intracellular Ca+2 responses (FLIPR), antagonism of the SDF-1α response
Assay type: cell-based
Conditions: for IC50: HEK-Gqi5 cells stably expressing human CXCR4, Fluo-4 FLIPR, antagonism of SDF-1α 1.9 nM (EC65); for CXCR4 (% Inh): percent antagonism of SDF-1α 1.9 nM (EC65) response, HEK-Gqi5 human CXCR4 cells, value in brackets
In short: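 HEK-Gqi5 cells stably expressing CXCR4, Fluo-4-loaded (2 uM, 40 min, 37 °C), read on FLIPR. Compound (2.44-40,000 nM) added first for agonism, then SDF-1α at 1.9 nM final (EC65); IC50 and percent antagonism from second-addition calcium signal.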

T1 sequence (P61073 whole entry): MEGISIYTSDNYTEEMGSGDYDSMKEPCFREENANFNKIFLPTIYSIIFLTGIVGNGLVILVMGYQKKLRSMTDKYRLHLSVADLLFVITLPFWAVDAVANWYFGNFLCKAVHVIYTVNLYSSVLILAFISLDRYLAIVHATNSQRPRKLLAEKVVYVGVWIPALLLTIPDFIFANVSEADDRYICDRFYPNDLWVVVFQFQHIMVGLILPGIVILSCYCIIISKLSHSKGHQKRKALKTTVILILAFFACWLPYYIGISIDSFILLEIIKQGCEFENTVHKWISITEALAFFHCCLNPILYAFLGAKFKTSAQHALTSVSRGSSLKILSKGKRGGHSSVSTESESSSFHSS

For COc1cc2nc(NCc3ncc[nH]3)nc(NC3CCN(Cc4c(OCCN(C)C)cccc4N(C)C)CC3)c2cc1OC [Compound 213, N˜4˜-(1-{2-(Dimethylamino)-6-[2-(dimethylamino)ethoxy]benzyl}piperidin-4-yl)-N˜2˜-(1H-imidazol-2-ylmethyl)-6,7-dimethoxyquinazoline-2,4-diamine], the IC50 (values in nM) was 30 nM and the “CXCR4 (% Inh)” value was 100%.

COc1cc2nc(NCc3cn(C)cn3)nc(NC3CCN(Cc4c(OCCN(C)C)cccc4N(C)C)CC3)c2cc1OC [Compound 215, N˜4˜-(1-{2-(Dimethylamino)-6-[2-(dimethylamino)ethoxy]benzyl}piperidin-4-yl)-6,7-dimethoxy-N˜2˜-[(1-methyl-1H-imidazol-4-yl)methyl]quinazoline-2,4-diamine] was tested, and the IC50 (values in nM) was 73 nM and the “CXCR4 (% Inh)” value was 99%.

In the case of COc1cc2nc(NCc3cc[nH]n3)nc(NC3CCN(Cc4c(OCCN(C)C)cccc4N(C)C)CC3)c2cc1OC [Compound 216, N˜4˜-(1-{2-(Dimethylamino)-6-[2-(dimethylamino)ethoxy]benzyl}piperidin-4-yl)-6,7-dimethoxy-N˜2˜-(1H-pyrazol-3-ylmethyl)quinazoline-2,4-diamine], the IC50 (values in nM) is reported as 32 nM and the “CXCR4 (% Inh)” value is reported as 100%.

In the case of COc1cccc(N(C)C)c1CN1CCC(Nc2nc(N3CCCN(C)CC3)nc3ccccc23)CC1 [Compound 217, N-(1-(2-(Dimethylamino)-6-methoxybenzyl)piperidin-4-yl)-2-(4-methyl-1,4-diazepan-1-yl)quinazolin-4-amine], the IC50 (values given in μM) is reported as 2100 nM and the “CXCR4 (% Inh)” value is reported as 100%.

For COc1cccc(N(C)C)c1CN1CCC(Nc2nc(N3CCN(C)CC3)nc3ccccc23)CC1 [Compound 218, N-(1-(2-(Dimethylamino)-6-methoxybenzyl)piperidin-4-yl)-2-(4-methyl-piperazin-1-yl)quinazolin-4-amine], the IC50 (values given in μM) was 1200 nM and the “CXCR4 (% Inh)” value was 84%.

In the case of COc1cc2nc(NCCCN(C)C)nc(NC3CCN(Cc4ccccc4N(C)C(C)C)CC3)c2cc1OC [Compound 224, N2-(3-(Dimethylamino)propyl)-N4-(1-(2-(isopropyl(methyl)amino)benzyl)piperidin-4-yl)-6,7-dimethoxyquinazoline-2,4-diamine], the IC50 (values in nM) is reported as 695 nM and the “CXCR4 (% Inh)” value is reported as 92%.

COc1cccc(N(C)C)c1CN1CCC(Nc2nc(NCCCNC(=O)OC(C)(C)C)nc3ccccc23)CC1 [Compound 225, tert-Butyl-3-(4-(1-(2-(dimethylamino)-6-methoxybenzyl)piperidin-4-ylamino)quinazolin-2-ylamino)propylcarbamate] was tested, and the IC50 (values in nM) was 614 nM and the “CXCR4 (% Inh)” value was 88%.

For COc1cc2nc(NCCCN)nc(NC3CCN(Cc4c(OC)cccc4N(C)C)CC3)c2cc1OC [Compound 227], the IC50 (values in nM) was 105 nM and the “CXCR4 (% Inh)” value was 94%.

For CN(C)CCCNc1nc(NC2CCN(Cc3c(OCCN(C)C)cccc3N(C)C)CC2)c2ccccc2n1 [Compound 228, N4-(1-(2-(Dimethylamino)-6-(2-(dimethylamino)ethoxy)benzyl)piperidin-4-yl)-N2-(3-(dimethylamino)propyl)quinazoline-2,4-diamine], the IC50 (values in nM) was 71 nM and the “CXCR4 (% Inh)” value was 98%.

With COc1cc2nc(NCCN(C)C)nc(NC3CCN(Cc4c(OCCN(C)C)cccc4N(C)C)CC3)c2cc1OC [Compound 229, N4-(1-(2-(Dimethylamino)-6-(2-(dimethylamino)ethoxy)benzyl)piperidin-4-yl)-N2-(2-(dimethylamino)ethyl)-6,7-dimethoxyquinazoline-2,4-diamine] the IC50 (values in nM) was 41 nM and the “CXCR4 (% Inh)” value was 96%.

In the case of COc1cc2nc(NCC3CNC3)nc(NC3CCN(Cc4c(OCCN(C)C)cccc4N(C)C)CC3)c2cc1OC [Compound 230, N2-(Azetidin-3-ylmethyl)-N4-(1-(2-(dimethylamino)-6-(2-(dimethylamino)ethoxy)benzyl)piperidin-4-yl)-6,7-dimethoxyquinazoline-2,4-diamine], the IC50 (values in nM) is reported as 56 nM and the “CXCR4 (% Inh)” value is reported as 96%.

With COc1cc2nc(SCCN(C)C)nc(NC3CCN(Cc4c(OCCN(C)C)cccc4N(C)C)CC3)c2cc1OC [Compound 231, N-(1-(2-(Dimethylamino)-6-(2-(dimethylamino)ethoxy)benzyl)piperidin-4-yl)-2-(2-(dimethylamino)ethylthio)-6,7-dimethoxyquinazolin-4-amine] the IC50 (values in nM) was 131 nM and the “CXCR4 (% Inh)” value was 96%.

For “N˜4˜-(1-{2-(Dimethylamino)-6-[2-(dimethylamino)ethoxy]benzyl}piperidin-4-yl)-6,7-dimethoxy-N2(1H-1,2,4-triazol-5-ylmethyl)quinazoline-2,4-diamine [Compound 211]”, the IC50 (values in nM) was 25 nM and the “CXCR4 (% Inh)” value was 98%.

For “N˜4˜-{1-[2-(Dimethylamino)-6-methoxybenzyl]pyrrolidin-3-yl}-N˜2˜-[3-(dimethylamino)propyl]-6,7-dimethoxyquinazoline-2,4-diamine [Compound 161]”, the IC50 (values given in μM) was 1900 nM and the “CXCR4 (% Inh)” value was 92%.

In the case of “N˜4˜-{1-[2-(Dimethylamino)-6-methoxybenzyl]pyrrolidin-3-yl}-N˜2˜-[3-(dimethylamino)propyl]-6,7-dimethoxyquinazoline-2,4-diamine [Compound 165]”, the IC50 (values in nM) is reported as 538 nM and the “CXCR4 (% Inh)” value is reported as 97%.
